Where two headings read alike, the source gives them in different places.
Columns and labels:
[1] = Cereulide in organs and tissues, SIDA-MS; type: in vivo, pig; conditions: for tissue level at time at 48 h / tissue level at time at 168 h: pig; for tissue level at time at 168 h: 10 ug/kg
Experimental: (§1) A total of four experiments, each including four treated animals and one control pig, was performed to investigate the action of cereulide on piglets after oral intake of cereulide. Pigs were either challenged orally with a single dose (acute trials) or with daily over a period of 7 days (chronic trial) (see Table 1). One hour before cereulide toxin administration blood samples were taken by puncturing the anterior Vena cava and piglets were weighed for calculation of the cereulide concentration (t = 0 h). In the intoxication experiment with 150 μg kg^-1 blood samples were taken 68 h before the experiment to reduce the distress for the animals at the start day of the experiments. Blood-chemical, immunological, and histological analyses of selected organs as well as quantification of cereulide in organs, tissues, urine and feces were carried out as detailed below.
(§2) On body weight calculated amounts of cereulide, dissolved in ethanol, were mixed with milk (UHT milk; 3.5% fat), and fed to four piglets. Control piglets were fed with milk supplemented with similar ethanol concentrations as the experimental piglets. The experiment started after the uptake of the whole milk cereulide mixture. The milk was checked for bacterial contamination prior to the experiment.
(§3) After oral administration of cereulide, piglets were monitored for unusual behavior and examined physically with special respect on rectal body temperature as well as pulse and respiration rate, every 2–3 h. Blood samples were taken from the Vena cava cranialis. Urine and feces were collected during the whole experiment and stored at -80°C. After the experiment pigs were anaesthetized by intramuscular injection of a bolus of ketamine (10 mg kg^-1) and azaperone (1.3 mg kg^-1). When sedation was deep enough cerebrospinal fluid (liquor) was taken by lumbar puncture. Finally, pigs were euthanized by intracardial injection of T61®. Animals were then necropsied and parts of the following organs, tissues or body fluids were taken for SIDA-MS analysis: liver, lung, heart, kidney, brain, spleen, small and large intestine, lymph nodes, gastric as well as intestinal contents, skeletal muscle, and abdominal and subcutaneous fat. Samples of liver, lung, heart, kidney, brain, spleen, small, and large intestine were collected for histological analysis.
Collected blood samples, urine, feces, tissue and organs were freeze dried and stored at -80°C until analysis. Before extraction, liquid nitrogen was added to frozen samples and they were crushed to a powder using a mortar. Ten microgram ^13C6-cereulide (for organs and feces) or 5 μg ^13C6-cereulide (for urine and blood) was added and samples were incubated on a rocking table for 2 h. Samples were solved in ethanol (volume depending on weight 10–40 mL), incubated 14 h, and the supernatants were collected by centrifugation (RT, 8500 g, 10 min). For pre-purification the ethanolic extract was 1:5 diluted with water and applied onto the top of a methanol activated C18-SPE cartridge (6 mL; 1 g; Strata C18-E; Phenomenex, Aschaffenburg, Germany). The cartridge was washed with 6 mL water followed by methanol/water (4 mL; 70/30, v/v) and target compounds were eluted with ethanol (2.5 mL). Finally, samples were membrane filtrated (0.2 μm; PTFE membrane; Phenomenex, Aschaffenburg, Germany) and analyzed by means of LC-MS/MS as described previously ([Bauer et al., 2010]). In brief, LC-MS/MS analysis was performed using an Agilent 1200 HPLC-system connected to the API 4000QTrap LC-MS/MS (Applied Biosystems, Darmstadt, Germany) running in the positive electrospray ionization (ESI^+, +5500 V) mode. Zero grade air served as nebulizer gas (45 psi) and turbo gas (425°C) for solvent drying (55 psi), nitrogen was used as curtain (20 psi) and collision gas (8.7 × 10^-7 psi), respectively. Both quadrapoles were set at unit resolution. […]

[2] = Cereulide in blood, SIDA-MS; type: in vivo, pig
Experimental: as §1, §2, §3
Collected blood samples, urine, feces, tissue and organs were freeze dried and stored at -80°C until analysis. Before extraction, liquid nitrogen was added to frozen samples and they were crushed to a powder using a mortar. […] Finally, samples were membrane filtrated (0.2 μm; PTFE membrane; Phenomenex, Aschaffenburg, Germany) and analyzed by means of LC-MS/MS as described previously ([Bauer et al., 2010]). […]

[3] = daily oral dose 10 μg kg^-1 for 7 days, SIDA-MS
[4] = daily oral dose 10 μg kg^-1 over 7 days
[5] = single oral dose 30 μg kg^-1, necropsy after 48 h, SIDA-MS
[6] = single oral dose 150 μg kg^-1, necropsy after 48 h, SIDA-MS

CC(C)C[C@H]1OC(=O)[C@H](C(C)C)NC(=O)[C@H](C(C)C)OC(=O)[C@@H](C)NC(=O)[C@@H](CC(C)C)OC(=O)[C@H](C(C)C)NC(=O)[C@H](C(C)C)OC(=O)[C@@H](C)NC(=O)[C@@H](CC(C)C)OC(=O)[C@H](C(C)C)NC(=O)[C@H](C(C)C)OC(=O)[C@@H](C)NC1=O [cereulide]
Average concentration in content of large intestine, acute 150 μg kg^-1 versus chronic 10 μg kg^-1 daily ([1]; acute high dose over chronic trial): about 15 fold
Amounts of cereulide in muscle, chronic trial versus acute high dose ([1]; chronic 10 μg kg^-1 daily exceeds acute 150 μg kg^-1): threefold
Cereulide concentration in content of large intestine, range [1, 3]: 2.04 to 6.78 ng/g
Cereulide concentration in kidney, range [1, 3]: 0.14 to 0.37 ng/g
Cereulide concentration in large intestine, range [1, 3]: 1.16 to 5.05 ng/g
Cereulide concentration in liver, range [1, 3]: 0.06 to 0.24 ng/g
Cereulide concentration in lymph nodes, range [1, 3]: 0.01 to 0.14 ng/g
Cereulide concentration in muscle, range [1, 3]: 0 to 2.23 ng/g
Cereulide concentration in spleen, range [1, 3]: 0.10 to 0.21 ng/g
Cereulide concentration in subcutaneous fat, range [1, 3]: 0 to 0.08 ng/g
Cereulide in large intestine and large intestinal contents, maximum [1, 4]: up to 6.8 ng g^-1
Detectability of cereulide in the small intestine [1, 4]: not detectable
Passage of the blood-brain-barrier (BBB) ([1]; detection of cereulide in brain samples after oral challenge): can cross the BBB
tissue level at time at 48 h ([1]; abdominal fat, 150 ug/kg, single oral dose 150 μg kg^-1, necropsy after 48 h, SIDA-MS, read-out: Cereulide concentration in abdominal fat, average): 7.88 ± 4.17 ng/g
tissue level at time at 48 h ([1]; brain, 150 ug/kg, single oral dose 150 μg kg^-1, necropsy after 48 h, SIDA-MS, read-out: Cereulide concentration in brain, average): 0.73 ± 0.49 ng/g
tissue level at time at 168 h ([1]; content of large intestine, daily oral dose 10 μg kg^-1 for 7 days, SIDA-MS, read-out: Cereulide concentration in content of large intestine, average): 4.41 ± 2.37 ng/g
tissue level at time at 48 h ([1]; content of large intestine, 30 ug/kg, single oral dose 30 μg kg^-1, necropsy after 48 h, SIDA-MS, read-out: Cereulide concentration in content of large intestine, average): 0.07 ± 0.03 ng/g
tissue level at time at 48 h ([1]; content of large intestine, 150 ug/kg, single oral dose 150 μg kg^-1, necropsy after 48 h, SIDA-MS, read-out: Cereulide concentration in content of large intestine, average): 67.9 ± 50.8 ng/g
tissue level at time at 48 h ([1]; content of small intestine, 150 ug/kg, single oral dose 150 μg kg^-1, necropsy after 48 h, SIDA-MS, read-out: Cereulide concentration in content of small intestine, average): 0.68 ± 0.53 ng/g
tissue level at time at 168 h ([1]; kidney, daily oral dose 10 μg kg^-1 for 7 days, SIDA-MS, read-out: Cereulide concentration in kidney, average): 0.25 ± 0.12 ng/g
tissue level at time at 48 h ([1]; kidney, 150 ug/kg, single oral dose 150 μg kg^-1, necropsy after 48 h, SIDA-MS, read-out: Cereulide concentration in kidney, average): 0.21 ± 0.21 ng/g
tissue level at time at 168 h ([1]; large intestine, daily oral dose 10 μg kg^-1 for 7 days, SIDA-MS, read-out: Cereulide concentration in large intestine, average): 3.11 ± 1.95 ng/g
tissue level at time at 48 h ([1]; large intestine, 30 ug/kg, single oral dose 30 μg kg^-1, necropsy after 48 h, SIDA-MS, read-out: Cereulide concentration in large intestine, average): 0.07 ± 0.06 ng/g
tissue level at time at 48 h ([1]; large intestine, 150 ug/kg, single oral dose 150 μg kg^-1, necropsy after 48 h, SIDA-MS, read-out: Cereulide concentration in large intestine, average): 30.5 ± 14.3 ng/g
tissue level at time at 168 h ([1]; liver, daily oral dose 10 μg kg^-1 for 7 days, SIDA-MS, read-out: Cereulide concentration in liver, average): 0.14 ± 0.08 ng/g
tissue level at time at 48 h ([1]; liver, 150 ug/kg, single oral dose 150 μg kg^-1, necropsy after 48 h, SIDA-MS, read-out: Cereulide concentration in liver, average): 0.37 ± 0.07 ng/g
tissue level at time at 168 h ([1]; lymph nodes, daily oral dose 10 μg kg^-1 for 7 days, SIDA-MS, read-out: Cereulide concentration in lymph nodes, average): 0.07 ± 0.07 ng/g
tissue level at time at 48 h ([1]; lymph nodes, 150 ug/kg, single oral dose 150 μg kg^-1, necropsy after 48 h, SIDA-MS, read-out: Cereulide concentration in lymph nodes, average): 2.82 ± 1.71 ng/g
tissue level at time at 168 h ([1]; muscle, daily oral dose 10 μg kg^-1 for 7 days, SIDA-MS, read-out: Cereulide concentration in muscle, average): 1.12 ± 1.12 ng/g
tissue level at time at 48 h ([1]; muscle, 150 ug/kg, single oral dose 150 μg kg^-1, necropsy after 48 h, SIDA-MS, read-out: Cereulide concentration in muscle, average): 0.39 ± 0.32 ng/g
tissue level at time at 48 h ([1]; small intestine, 150 ug/kg, single oral dose 150 μg kg^-1, necropsy after 48 h, SIDA-MS, read-out: Cereulide concentration in small intestine, average): 1.34 ± 0.88 ng/g
tissue level at time at 168 h ([1]; spleen, daily oral dose 10 μg kg^-1 for 7 days, SIDA-MS, read-out: Cereulide concentration in spleen, average): 0.15 ± 0.06 ng/g
tissue level at time at 48 h ([1]; spleen, 150 ug/kg, single oral dose 150 μg kg^-1, necropsy after 48 h, SIDA-MS, read-out: Cereulide concentration in spleen, average): 2.26 ± 1.75 ng/g
tissue level at time at 48 h ([1]; stomach, 150 ug/kg, single oral dose 150 μg kg^-1, necropsy after 48 h, SIDA-MS, read-out: Cereulide concentration in stomach, average): 2 ± 3.2 ng/g
tissue level at time at 168 h ([1]; subcutaneous fat, daily oral dose 10 μg kg^-1 for 7 days, SIDA-MS, read-out: Cereulide concentration in subcutaneous fat, average): 0.04 ± 0.04 ng/g
tissue level at time at 48 h ([1]; subcutaneous fat, 150 ug/kg, single oral dose 150 μg kg^-1, necropsy after 48 h, SIDA-MS, read-out: Cereulide concentration in subcutaneous fat, average): 0.74 ± 0.51 ng/g
Cereulide concentration in content of large intestine, range [1, 5]: 0 to 0.09 ng/g
Cereulide concentration in large intestine, range [1, 5]: 0 to 0.13 ng/g
Cereulide in content of the large intestine, maximum ([1]; single oral dose 150 μg kg^-1): up to 140 ng g^-1
Cereulide in content of the small intestine, maximum ([1]; single oral dose 150 μg kg^-1): ≤ 1 ng/g
Cereulide in the brain, animal with highest blood concentration ([1]; single oral dose 150 μg kg^-1): 1.4 ng cereulide g^-1
Cereulide in fat tissue, one animal ([1]; single oral dose 150 μg kg^-1, animal with highest blood concentration): 2 ng cereulide g^-1 fat tissue
Cereulide concentration in abdominal fat, range [1, 6]: 2.17 to 12.02 ng/g
Cereulide concentration in brain, range [1, 6]: 0.15 to 1.41 ng/g
Cereulide concentration in content of large intestine, range [1, 6]: 5.84 to 140.99 ng/g
Cereulide concentration in content of small intestine, range [1, 6]: 0 to 1.06 ng/g
Cereulide concentration in kidney, range [1, 6]: 0 to 0.43 ng/g
Cereulide concentration in large intestine, range [1, 6]: 7.14 to 45.75 ng/g
Cereulide concentration in liver, range [1, 6]: 0.25 to 0.41 ng/g
Cereulide concentration in lymph nodes, range [1, 6]: 0 to 4.50 ng/g
Cereulide concentration in muscle, range [1, 6]: 0 to 0.76 ng/g
Cereulide concentration in small intestine, range [1, 6]: 0.34 to 2.49 ng/g
Cereulide concentration in spleen, range [1, 6]: 1.15 to 5.29 ng/g
Cereulide concentration in stomach, range [1, 6]: 0.11 to 7.54 ng/g
Cereulide concentration in subcutaneous fat, range [1, 6]: 0.35 to 1.37 ng/g
Cereulide in fat tissues, maximum ([1]; single oral dose 150 μg kg^-1, two out of four animals): up to 12 ng cereulide g^-1
Detectability of cereulide in blood ([2]; single oral dose 150 μg kg^-1, after 24–48 h): detectable in three out of four pigs
Highest concentration of cereulide in the blood ([2]; single oral dose 150 μg kg^-1, one animal): 45 ng cereulide mL^-1
Time of first detection in blood ([2]; single oral dose 150 μg kg^-1, pig with highest blood levels): 8 h
Maximum cereulide in blood after 24 h ([2]; single oral dose 150 μg kg^-1, pig with lowest abdominal fat level, 24 h): 45 ng cereulide mL^-1

Source: paper PMC6234764, “First Insights Into Within Host Translocation of the Bacillus cereus Toxin Cereulide Using a Porcine Model” (Frontiers in Microbiology, 2018)
